Experimental data taken from patent US7541044B2, “Administration of 5T4 antigen and immune response of cells expressing 5T4 and CEA antigens” (priority 2004, dated 2009).

Assays:
[1] = system: colon carcinoma derived metastatic rat tumour line; conditions: SC tumour line transfected with cytosine deaminase gene, then 5-fluorocytosine; cited from earlier work
[2] = system: B16 melanoma lung metastases; conditions: tk gene then ganciclovir; immunocompetent but not immunodeficient mice; cited from earlier work
[3] = Adverse events, NCI-common toxicity criteria (BC1); type: in vivo, human; conditions: attributed to oral cyclophosphamide
Description: Further assessment was performed in out-patients on day 7. Biopsy of the injected tumour nodules was performed under local anaesthetic. The biopsies were snap-frozen in liquid nitrogen, then sectioned and fixed for histological assessment. Treatment with cyclophosphamide 100 mg/m^2 p.o. was commenced for 14 out of every 28 days. Patients were reviewed weekly for the first 8 weeks and end of study assessment, including tumour size and appropriate re-staging CT scans performed at 12 weeks. Response was assessed according to WHO criteria. Patients with stable or responding disease continued with cyclophosphamide at the discretion of the investigator. Toxicity was graded according to NCI-common toxicity criteria (version 2).
The main toxicity observed in the study was attributed to oral cyclophosphamide with the most frequent non-haematological events described as nausea (9 patients), alopecia (6 patients), headache (5 patients), anorexia (4 patients) and fatigue (4 patients). All of these events were grade I or II by NCI-CTC with the exception of one patient with grade III fatigue. Two patients had clinically significant haematological toxicity with grade III leucopenia and grade II neutropenia. No patients were admitted with neutropenic fever. […] During the study 3 patients with breast cancer experienced serious adverse events (patient 103 hypotension, dysarthria and left sided weakness, patient 104 trismus and tongue oedema and patient 108 deep vein thrombosis, hypotension and dyspnoea). None of the serious adverse events were considered related to MetXia-P450.

Nc1nc(=O)[nH]cc1F [5-fluorocytosine]
regression in the volume of established liver tumours [1]: 70%

Nc1nc(O)c2ncn(COC(CO)CO)c2n1 [ganciclovir]
B16 melanoma lung metastases [2]: marked reduction

O=P1(N(CCCl)CCCl)NCCCO1 (stereo not drawn) [cyclophosphamide]
clinically significant haematological toxicity (grade III leucopenia and grade II neutropenia) [3]: Two
fatigue [3]: 4 patients
grade III fatigue [3]: one
alopecia ([3]; grade I or II): 6 patients
anorexia ([3]; grade I or II): 4 patients
headache ([3]; grade I or II): 5 patients
nausea ([3]; grade I or II): 9 patients
